“And” between values parts separate entries of the source, which are not always exact repeats. Identical values can stand only once. Toxic doses and inconclusive results are not listed.
System: CD2F1 mice, L1210 leukemia sc, survival T/C
Assay: NCI In Vivo Anticancer Drug Screen. Data for tumor model L1210 Leukemia (subcutaneous) in CD2F1 (CDF1) mice
Details: endpoint: median survival time, higher = longer survival
Description: The antitumor activity of compounds was measured in mice bearing transplantable tumors. Survival or tumor size were measured and the results are expressed as the measurement made in the treated group (T) divided by the measurement made in the vehicle treated control group (C). The tumor model used in this assay is L1210 Leukemia (subcutaneous) in CD2F1 (CDF1) mice

CN1c2c(nc(N)[nH]c2=O)NCC1CCNc1ccc(C(=O)NC(CCC(=O)O)C(=O)O)cc1 (stereo not drawn)
T/C (dose: 200.0 mg/kg/injection, schedule: Q01DX009 (ip), vehicle: other): 150 % of control | T/C (dose: 200.0 mg/kg/injection, schedule: Q01DX Z (ip), vehicle: other): 155 % of control | T/C (dose: 200.0 mg/kg/injection, schedule: Q04DX003 (ip), vehicle: other): 116 % of control | T/C (dose: 400.0 mg/kg/injection, schedule: Q01DX009 (ip), vehicle: other): 155 % of control | T/C (dose: 400.0 mg/kg/injection, schedule: Q01DX Z (ip), vehicle: other): 155 % of control and 166 % of control | T/C (dose: 400.0 mg/kg/injection, schedule: Q04DX003 (ip), vehicle: other): 111 % of control | T/C (dose: 1600.0 mg/kg/injection, schedule: Q04DX003 (ip), vehicle: other): 111 % of control

CSc1nc2[nH]cnc(=S)c2[nH]1
T/C (dose: 23.0 mg/kg/injection, schedule: Q01DX Z (sc), vehicle: methylcellulose (MC)): 90 % of control | T/C (dose: 39.0 mg/kg/injection, schedule: Q01DX Z (sc), vehicle: methylcellulose (MC)): 100 % of control | T/C (dose: 65.0 mg/kg/injection, schedule: Q01DX Z (sc), vehicle: methylcellulose (MC)): 100 % of control | T/C (dose: 108.0 mg/kg/injection, schedule: Q01DX Z (sc), vehicle: methylcellulose (MC)): 100 % of control | T/C (dose: 180.0 mg/kg/injection, schedule: Q01DX Z (sc), vehicle: methylcellulose (MC)): 100 % of control | T/C (dose: 300.0 mg/kg/injection, schedule: Q01DX Z (sc), vehicle: methylcellulose (MC)): 100 % of control

COc1cc2c(c(OC)c1OC)-c1ccc(N)c(=O)cc1[C@@H](NC(C)=O)CC2
T/C (dose: 1.0 mg/kg/injection, schedule: Q01DX Z (sc), vehicle: water): 90 % of control | T/C (dose: 2.0 mg/kg/injection, schedule: Q01DX Z (sc), vehicle: water): 109 % of control | T/C (dose: 4.0 mg/kg/injection, schedule: Q01DX Z (sc), vehicle: water): 109 % of control | T/C (dose: 8.0 mg/kg/injection, schedule: Q01DX Z (sc), vehicle: water): 109 % of control | T/C (dose: 16.0 mg/kg/injection, schedule: Q01DX Z (sc), vehicle: water): 109 % of control

NC(Cc1ccccc1)C(=O)OCN1C(=O)C2C3C=CC(C2C1=O)C1C2C(=O)N(COC(=O)C(N)Cc4ccccc4)C(=O)C2C31 (stereo not drawn)
T/C (dose: 21.6 mg/kg/injection, schedule: Q01DX005 (iv), vehicle: other): 107 % of control | T/C (dose: 21.6 mg/kg/injection, schedule: Q01DX009 (ip), vehicle: other): 111 % of control | T/C (dose: 21.6 mg/kg/injection, schedule: Q01DX009 (ip), vehicle: water): 107 % of control and 121 % of control | T/C (dose: 30.9 mg/kg/injection, schedule: Q01DX005 (iv), vehicle: other): 105 % of control | T/C (dose: 30.9 mg/kg/injection, schedule: Q01DX009 (ip), vehicle: other): 112 % of control | T/C (dose: 30.9 mg/kg/injection, schedule: Q01DX009 (ip), vehicle: water): 107 % of control | T/C (dose: 36.0 mg/kg/injection, schedule: Q01DX009 (ip), vehicle: water): 109 % of control | T/C (dose: 44.1 mg/kg/injection, schedule: Q01DX005 (iv), vehicle: other): 111 % of control | T/C (dose: 44.1 mg/kg/injection, schedule: Q01DX009 (ip), vehicle: other): 114 % of control | T/C (dose: 63.0 mg/kg/injection, schedule: Q01DX005 (iv), vehicle: other): 117 % of control | T/C (dose: 90.0 mg/kg/injection, schedule: Q01DX009 (ip), vehicle: other): 177 % of control | T/C (dose: 90.0 mg/kg/injection, schedule: Q01DX009 (ip), vehicle: water): 169 % of control | T/C (dose: 100.0 mg/kg/injection, schedule: Q01DX009 (ip), vehicle: water): 211 % of control | T/C (dose: 128.6 mg/kg/injection, schedule: Q01DX009 (ip), vehicle: other): 221 % of control | T/C (dose: 128.6 mg/kg/injection, schedule: Q01DX009 (ip), vehicle: water): 227 % of control | T/C (dose: 216.0 mg/kg/injection, schedule: Q01DX009 (oral), vehicle: water): 122 % of control | T/C (dose: 441.0 mg/kg/injection, schedule: Q01DX009 (oral), vehicle: other): 162 % of control | T/C (dose: 630.0 mg/kg/injection, schedule: Q01DX009 (oral), vehicle: other): 234 % of control | T/C (dose: 630.0 mg/kg/injection, schedule: Q01DX009 (oral), vehicle: water): 171 % of control | T/C (dose: 900.0 mg/kg/injection, schedule: Q01DX009 (oral), vehicle: water): 270 % of control

COc1cccc2c1C(=O)c1c(O)c3c(c(O)c1C2=O)CC(O)(C(=O)CO)CC3OC1CC(N)C(O)C(C)O1 (stereo not drawn)
T/C (dose: 2.9 mg/kg/injection, schedule: Q01DX009 (ip), vehicle: saline): 104 % of control | T/C (dose: 5.8 mg/kg/injection, schedule: Q01DX009 (ip), vehicle: saline): 105 % of control | T/C (dose: 11.7 mg/kg/injection, schedule: Q01DX009 (ip), vehicle: saline): 106 % of control | T/C (dose: 23.4 mg/kg/injection, schedule: Q01DX009 (ip), vehicle: saline): 115 % of control | T/C (dose: 46.8 mg/kg/injection, schedule: Q01DX009 (ip), vehicle: saline): 111 % of control

From PubChem BioAssay AID258 (DTP/NCI, 2004)
